“And” between values parts separate entries of the source, which are not always exact repeats. Equal entries are not always repeated.
How the values were obtained:
[1] = test system: serum cytokines/chemokines; test: CLP model: serum cytokines/chemokines (Luminex); type: in vivo, mouse; conditions: 24 h and 48 h post-CLP
Description: At the indicated times (pre-CLP, 24 h, 48 h, and 72 h post-CLP) ˜500 μl blood was collected in a pre-labeled Eppendorf tube and left for 30 min to allow clotting. The samples were centrifuged at 1800 g (3000 rpm) for 10 min at 4° C., […]. Serum was transferred to a new pre-labeled Eppendorf tube and kept at 4° C. Excess serum was stored at −80° C. Cytokine/chemokine measurement was performed using the Luminex MAGPIX system, and analysis was performed with Milliplex software.
Cytokine/chemokine measurement was performed using the Luminex MAGPIX system, and analysis was performed with Milliplex software. NGAL and Cystatin C were tested by Luminex Multiplex kit (Millipore, MKI2MAG-P4k). All reagents were provided with the kit, and all reagents were prepared according to the manufacturers' protocols. The assays were performed in 96-well plates according to the protocol provided. Plate reading was performed with the Luminex MAGPIX system (Luminex Corp.) and analyzed using Milliplex software (Millipore). […] The raw data was measured as mean fluorescence intensity (MFI) and the concentration of each analyte for each sample was calculated using a 4- or 5-parameter logistic fit curve generated for each analyte from the 7 standards. The lower limit of quantification (LLOQ) was determined using the lowest standard that was at least 3 times above background. […]

CLP-induced sepsis [2] = test: Cecal ligation puncture (CLP) mouse model for sepsis: survival, weight and MSS clinical score; type: in vivo
Text: The cecal ligation puncture (CLP) model has been proposed to more closely replicate the nature and course of clinical sepsis in humans, as compared to other models, and is considered by many researchers as the gold-standard animal model of sepsis. The CLP model involves the ligation of the cecum, usually below the ileocecal junction (to prevent bowel obstruction), and at least one centimeter above the distal end of the cecum, otherwise the sepsis induced is very mild. The length of ligated cecum, defined as the distance from the distal end of the cecum to the ligation point, determines the severity of the sepsis induced. Following ligation, the cecum is perforated, and this step too can be adjusted to modulate the severity of the sepsis ensuing. The perforation of the cecum is followed by the release of fecal material into the peritoneal cavity to induce a polymicrobial infection, which results in an exacerbated immune response. The benefits of the CLP model are its reproducibility and potential to alter the severity of sepsis by controlling needle size, number of cecal punctures, and antibiotics utilization.
The study reported here summarizes the effect of apoptotic cells administered 4 hours after the end of CLP on the development of CLP-induced sepsis in a female C57BL/6 mouse model.
C57BL/6 female mice, 10-13 wk old, were purchased from ENVIGO (Israel). Mice were kept in an SPF animal facility in compliance with institutional IACUC guidelines. Mice were weighed daily and monitored 2-3 times a day for clinical signs and determination of the murine sepsis score (MSS) clinical score (according to Shrum, B., Anantha, R. V., Xu, S. X., Donnelly, M., Haeryfar, S. M. M., McCormick, J. K., and Mele, T. (2014). A robust scoring system to evaluate sepsis severity in an animal model. BMC Res. Notes 7, 1-11). The endpoint was defined as total score of 15 or maximum score in one of the categories in the table.
The procedure was performed as briefly described below: Cecal Ligation and Puncture (CLP)—Experimental method. Briefly, the mice were operated under isoflurane anesthesia machine. Mice were anesthetized by 4% isoflurane in the chamber for about 1 minute, following anesthesia mice were transferred to the operation table and connected to the isoflurane nuzzle with 2% isoflurane. Mice were administered analgesics by sub-cutaneous (S.C.) injection of tramadol 5 mg/kg in 0.1 ml of pre-warmed 0.9% saline solution. After opening the abdomen of the mouse by a midline incision, the cecum was exposed. The cecum was ligated 75% above its distal end with a 4-0 silk suture. Following ligation, the cecum was perforated twice with a 19-gauge needle, using the through-and-through technique (introducing a needle through the cecum). […]

CLP-induced sepsis [3] = test: CLP model: organ dysfunction analysis 24 hours post CLP (blood gas, hematology, biochemistry, lung weight, NGAL, cystatin C, C3a, C5a); type: in vivo, mouse; conditions: CLP + Ertapenem mice
Description: 22-24 h after CLP, mice were weighed, assigned an MSS clinical score and sacrificed for the evaluation of organ dysfunction. Mice were bled through the retro-orbital sinus (venous blood). Naïve mice were bled under isoflurane analgesia; CLP mice were bled without analgesia due to the concern of death. 100 μl blood was collected using heparin-coated capillary tube (Paul Marienfeld, K G, Lauda-Knigshofen, Germany) and immediately tested using STAT profile prime machine (Nova Biomedical, Waltham, Mass., USA). […] was collected into EDTA tubes (MiniCollect, Greiner Bio-One, […], Austria), tubes were rotated to prevent blood clotting and kept at 4° C. Hematology analysis was performed by AML laboratories (Herzliya, Israel). About 500 μl blood was collected to a pre-labeled Eppendorf tube and left for -30 min to allow clotting. The samples were centrifuged at 1800 g (3000 rpm) for 10 min at 4° C., 200 μl serum was transferred to a new pre-labeled Eppendorf tube and kept at 4° C. Excess serum was stored in -80° C. Biochemistry analysis was performed by AML laboratories (Herzliya, Israel). […] Blood was collected to pre-labeled Eppendorf tubes and left for -30 min to allow clotting. Tubes were centrifuged at 1800 g (3000 rpm) for 10 min at 4° C. Serum was transferred to new pre-labeled Eppendorf tubes and stored at -80° C. for Luminex (NGAL and Cystatin C) and ELISA (C3a and C5a) evaluation. Cytokine/chemokine measurement was performed using the Luminex MAGPIX system, and analysis was performed with Milliplex software. NGAL and Cystatin C were tested by Luminex Multiplex kit (Millipore, […]). All reagents were provided with the kit, and all reagents were prepared according to the manufacturers' protocols. The assays were performed in 96-well plates according to the protocol provided. Plate reading was performed with the Luminex MAGPIX system (Luminex Corp.) and analyzed using Milliplex software (Millipore). […] The raw data was measured as mean fluorescence intensity (MFI) and the concentration of each analyte for each sample was calculated using a 4- or 5-parameter logistic fit curve generated for each analyte from the 7 standards. […] The calculation of the LLOQ was performed by subtracting the MFI of the background (diluent) from the MFI of the lowest standard concentration and back-calculating the concentration from the standard curve. Complement components were tested by sandwich ELISA kits: […]038) and C5a (EA100633, OriGene, Rockville, Md., USA). All reagents were provided with the kits and prepared according to the manufacturers' protocols. Assays were performed in 96-well plate according to the protocols provided. OD plate reading was performed with the Infinite F50 (TECAN, Mainnedorf, Switzerland) and analyzed using Magellan software (TECAN). The raw data was measured as 450 nm optical density (OD) and the concentration was calculated using a linear standard curve generated from 6-7 standards. The lower limit of quantification (LLOQ) was determined using the lowest standard. The calculation of the LLOQ was performed by subtracting the OD of the background (diluent) from the OD of the lowest standard concentration and back-calculating the concentration from the standard curve. […] N=40) was assigned with a clinical score, weighed, and blood samples were drawn from the retro-orbital sinus for further analyses. Mice were sacrificed and their lungs were harvested and weighed. To elucidate the effects of CLP on organ dysfunction and its correlation with the MSS clinical score, blood was tested for multiple parameters of organ dysfunction relating to five major systems: cardiovascular, respiratory, renal, hepatic, and hematological, as well as complement and several metabolites (Tables 24A and 24B).

Raji cells = test: Flow cytometry of CD20+ Raji tumor cells in spleen, bone marrow and liver of leukemic mice; type: in vivo, mouse; conditions: for CD20+, Bone marrow / CD20+, Liver / CD20+, Spleen: In Vivo Experiment 023, individual mice
Description: Mouse spleen, liver, and bone marrow were collected from sacrificed mice (following deterioration of clinical signs, as defined above) and analyzed by flow-cytometry (FACSCalibur, BD, Franklin Lakes, N.J., USA) for the presence of the Raji tumor (anti-CD20).
Upon sacrifice, following the deterioration of clinical signs as described above, organs of interest were collected for analysis, namely the liver, spleen, and bone-marrow. Cells of these target organs were analyzed by flow cytometry for the presence of human tumor cells (Raji cells are positive for CD20).
Liver, spleen, and bone marrow cells were collected and analyzed by flow cytometry (FACSCalibur, BD) for the presence of human CD20-FITC (Biolegend, Cat. #302206); mIgG1-FITC (Biolegend, Cat. #400110).
Mouse spleen, liver, and bone marrow cells were collected from mice who were sacrificed following clinical deterioration, as defined in the methods) and analyzed by flow cytometry (FACSCalibur, BD) for the presence of human CD20 (FITC).
Expression (%) of CD20 tumor cells in the spleen, bone marrow, and liver, as determine by flow cytometry. Mouse spleen, liver, and bone marrow were collected from sacrificed mice (following clinical deterioration, as defined in methods) and analyzed by flow cytometry (FACSCalibur, BD) for the presence of human CD20 (FITC).

[4] = CLP mice given ertapenem, Allocetra-OTS 20×10^6 cells IV 4 h after CLP

Compound: C[C@@H](O)[C@H]1C(=O)N2C(C(=O)O)=C(S[C@@H]3CN[C@H](C(=O)Nc4cccc(C(=O)O)c4)C3)[C@H](C)[C@H]12 [Ertapenem]
- cytokine/chemokine release after sepsis induction [1]: no beneficial effects
- final clinical score (MSS plateau value) (CLP-induced sepsis [2]; CLP mice given ertapenem): 14.37
- median survival (CLP-induced sepsis [2]; [4]): 48 h
- mortality (CLP-induced sepsis [2]; [4]): 93%
- survival rate (CLP-induced sepsis [2]; Ertapenem with vehicle control, n=15): 6.6%
- Basophils, median (CLP-induced sepsis [3]): 0 10^3/μl
- C3a, median (CLP-induced sepsis [3]): 4835 ng/mL
- C5a, median (CLP-induced sepsis [3]): 1809 ng/mL
- Chloride, median (CLP-induced sepsis [3]): 121.1 mmol/L
- Cholesterol, median (CLP-induced sepsis [3]): 108 mg/dL
- Eosinophils, median (CLP-induced sepsis [3]): 0 10^3/μl
- Glucose, median (CLP-induced sepsis [3]): 59.5 mg/dL
- HCT, median (CLP-induced sepsis [3]): 40.9%
- Hemoglobin, median (CLP-induced sepsis [3]): 12.4 g/dL
- Lactate, median (CLP-induced sepsis [3]): 13 mg/dL
- Lymphocytes, median (CLP-induced sepsis [3]): 1.55 10^3/μl
- MCH, median (CLP-induced sepsis [3]): 14.9 pg
- MCHC, median (CLP-induced sepsis [3]): 31.2 g/dL
- MCV, median (CLP-induced sepsis [3]): 47.9 fL
- Monocytes, median (CLP-induced sepsis [3]): 0 10^3/μl
- Neutrophils, median (CLP-induced sepsis [3]): 0.31 10^3/μl
- Phosphorus, median (CLP-induced sepsis [3]): 10.2 mg/dL
- Platelets, median (CLP-induced sepsis [3]): 99 10^3/μL
- Potassium, median (CLP-induced sepsis [3]): 6.6 mmol/L
- RBC, median (CLP-induced sepsis [3]): 8.36 10^6/μL
- Sodium, median (CLP-induced sepsis [3]): 154.1 mmol/L
- WBC, median (CLP-induced sepsis [3]): 1.94 10^3/μL

Compound: Rituximab [RtX]
- CD20+, Bone marrow (Raji cells; RtX 2 mg/kg): 0.8% and 3.1% and 3%
- CD20+, Liver (Raji cells; RtX 2 mg/kg): 2.1% and 1.2% and 0.4%
- CD20+, Spleen (Raji cells; RtX 2 mg/kg): 0% (2×) and 0.7%
- CD20+, Bone marrow (Raji cells; RtX 5 mg/kg): 2.1% and 0.5% and 4.3% and 2.2% and 2.6%
- CD20+, Liver (Raji cells; RtX 5 mg/kg): 1% and 7.3% and 1.4% and 0.9% and 5.7%
- CD20+, Spleen (Raji cells; RtX 5 mg/kg): 0% (3×) and 0.1% (2×)
- CD20+ average tumor cell population, Bone Marrow (Raji cells; rtx 2 mg/Kg): 2.3 ± 1.3%
- CD20+ average tumor cell population, Liver (Raji cells; rtx 2 mg/Kg): 1.2 ± 0.8%
- CD20+ average tumor cell population, Spleen (Raji cells; rtx 2 mg/Kg): 0.2 ± 0.4%
- CD20+ average tumor cell population, Bone Marrow (Raji cells; rtx 5 mg/Kg): 1.7 ± 1.5%
- CD20+ average tumor cell population, Liver (Raji cells; rtx 5 mg/Kg): 3 ± 2.5%
- CD20+ average tumor cell population, Spleen (Raji cells; rtx 5 mg/Kg): 0%

Reference: US11596652B2, “Early apoptotic cells for use in treating sepsis” (ENLIVEX THERAPEUTICS LTD., priority 2015, dated 2023)
